In PMC9229294, “Pyridazinones and Structurally Related Derivatives with Anti-Inflammatory Activity” (Molecules, 2022):

How the values were obtained:
[1] = system: LPS-induced NF-κB activity in THP1-Blue cells; assay: Inhibition of LPS-induced NF-κB transcriptional activity, alkaline phosphatase reporter, THP1-Blue cells; assay type: cell-based, human; details: for IC50: LPS-induced NF-κB activity, human THP1-Blue cells, N.A. = no activity at 50 µM; for Inhibition of LPS-induced NF-κB activity (in words): THP1-Blue cells; for Observed class for inhibition of NF-κB activity: experimentally observed, Active or N.A.
Protocol: (§1) Our studies included 175 compounds that were previously synthesized and characterized at NEUROFARBA, Pharmaceutical and Nutraceutical Section, University of Florence, Italy. We previously evaluated the FPR1/FPR2 agonist activity of these compounds by evaluating their ability to induce Ca^2+ mobilization in FPR-transfected HL60 cells and human neutrophils. […] All test compounds were dissolved in DMSO at stock concentrations of 10 mM and stored at −20 °C. For primary screening assays (analysis of NF-κB activation, IL-6 production, and cytotoxicity), the following final concentrations of the compounds were used: 3.125, 6.25, 12.5, 25, and 50 µM; the final concentration of DMSO was 1% in all samples.
The activation of NF-κB was measured using an alkaline phosphatase reporter assay in human monocytic THP1-Blue cells stably transfected with a secreted embryonic alkaline phosphatase gene that is under the control of a promoter inducible by the NF-κB. The THP1-Blue cells (2 × 10^5 cells/well) were pretreated with the test compound or DMSO for 30 min, followed by an addition of 250 ng/mL LPS for 24 h. Alkaline phosphatase activity was determined in cell supernatants using a QUANTI-Blue mix (InvivoGen) and measured at 655 nm and compared with positive control samples (LPS).

[2] = Cytotoxicity, CellTiter-Glo, THP1-Blue cells; assay type: cell-based, human; details: human, THP1-Blue cells
Protocol: as §1
(§2) The cytotoxicity was analyzed with a CellTiter-Glo Luminescent Cell Viability Assay Kit from Promega (Madison, WI, USA), according to the manufacturer’s protocol. The luminescent ATP assays are based on a luciferase enzymatic reaction which uses ATP from viable cells to generate photons. For this assay, the cells were incubated with the compounds under investigation for 24 h. After treatment, the cells were equilibrated to room temperature for 30 min, luciferase + luciferin substrate was added, and the samples were analyzed with a Fluoroscan Ascent FL (Thermo Fisher Scientific, Waltham, MA, USA). The IC50 values were calculated by plotting the percentage inhibition against the logarithm of the inhibitor concentration (at least five points).

[3] = system: LPS-induced IL-6 production in MonoMac-6 cells; assay: Inhibition of LPS-induced IL-6 production in MonoMac-6 cells (ELISA); assay type: cell-based, human; details: for IC50: Homo sapiens, MONO-MAC-6, read-out: Inhibition of IL-6 Production IC50 in MonoMac-6 Cells; for Inhibition of LPS-induced IL-6 production (in words): MonoMac-6 cells, 250 ng/mL LPS, 24 h
Protocol: as §1
A human IL-6 ELISA kit (BD Biosciences, San Jose, CA, USA) was used to measure IL-6 production. […] The cells were pretreated with the test compound or DMSO for 30 min, followed by addition of 250 ng/mL LPS for 24 h. The IC50 values for IL-6 production were calculated by plotting the percentage inhibition against the logarithm of the inhibitor concentration (at least five points).

[4] = Cytotoxicity, CellTiter-Glo, MonoMac-6 cells; assay type: cell-based, human; details: human, MonoMac-6 cells
Protocol: as §1, §2

[5] = biological target: T1, FPR1 (Homo sapiens, UniProt P21462); details: FPR1-transfected HL-60 cells; agonist activity from Table 1; read-out: Ca2+ Mobilization FPR1 EC50 in HL-60 Cells; cited from earlier work
T1 construct: expressed in transfected cells; host or cells: HL-60 cells (FPR1-HL60)
T1 sequence (P21462 1-350): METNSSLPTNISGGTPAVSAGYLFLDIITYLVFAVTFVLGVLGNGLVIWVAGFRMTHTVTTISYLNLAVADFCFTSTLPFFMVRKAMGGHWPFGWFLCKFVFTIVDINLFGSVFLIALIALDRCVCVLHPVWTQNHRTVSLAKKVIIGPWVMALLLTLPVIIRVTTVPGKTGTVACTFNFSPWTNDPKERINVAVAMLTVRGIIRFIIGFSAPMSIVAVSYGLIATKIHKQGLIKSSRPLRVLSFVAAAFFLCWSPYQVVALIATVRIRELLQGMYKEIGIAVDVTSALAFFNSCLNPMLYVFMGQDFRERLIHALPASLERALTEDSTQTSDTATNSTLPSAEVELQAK

[6] = biological target: T2, FPR2 (Homo sapiens, UniProt P25090); details: FPR2-transfected HL-60 cells; agonist activity from Table 1; read-out: Ca2+ Mobilization FPR2 EC50 in HL-60 Cells; cited from earlier work
T2 construct: expressed in transfected cells; host or cells: HL-60 cells (FPR2-HL60)
T2 sequence (P25090 1-351): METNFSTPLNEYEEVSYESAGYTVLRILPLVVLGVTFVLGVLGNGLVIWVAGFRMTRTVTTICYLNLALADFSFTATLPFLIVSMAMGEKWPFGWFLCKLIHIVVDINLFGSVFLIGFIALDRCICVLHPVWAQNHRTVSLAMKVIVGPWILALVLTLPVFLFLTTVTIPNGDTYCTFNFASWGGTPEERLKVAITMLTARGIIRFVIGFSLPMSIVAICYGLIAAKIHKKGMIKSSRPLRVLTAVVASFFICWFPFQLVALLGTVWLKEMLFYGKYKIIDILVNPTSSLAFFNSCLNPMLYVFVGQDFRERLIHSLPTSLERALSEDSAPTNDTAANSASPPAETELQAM

[7] = N.T. = no cytotoxicity at 50 µM, read-out: Cytotoxicity IC50 in THP1-Blue Cells

Compound | IC50 at 24 h [2, 7] | IC50 ([1]; Homo sapiens) | Observed class for inhibition of NF-κB activity [1] | EC50 [5] | EC50 [6] | other results
CC(C)c1c(NC(=O)Nc2ccc(Cl)cc2)c(=O)n(-c2ccccc2)n1C [Cmpd43, N-(4-chlorophenyl)-N′-(5-isopropyl-1-methyl-3-oxo-2-phenyl-2,3-dihydro-1H-pyrazol-4-yl)urea, reference compound] | > 50 µM |  |  |  |  | IC50 [1]: > 50 µM; Inhibition of LPS-induced NF-κB activity (in words) ([1]; 250 ng/mL LPS, 24 h): did not inhibit
COc1cccc(Cc2cc(C)nn(CC(=O)Nc3ccc(Br)cc3)c2=O)c1 [Compound 1] |  |  |  |  |  | Inhibition of LPS-induced NF-κB activity (in words) ([1]; 250 ng/mL LPS, 24 h): inactive
COc1cccc(Cc2cc(C)nn(CC(=O)Nc3cccc(Br)c3)c2=O)c1 [Compound 2] | > 50 µM | 44.5 ± 2.5 µM | Active |  |  | IC50 [3]: 30.7 ± 3.6 µM; Inhibition of LPS-induced IL-6 production (in words) [3]: inhibitors of IL-6 production; IC50 at 24 h [4]: > 50 µM
COc1cccc(Cc2cc(C)nn(CC(=O)Nc3ccc([N+](=O)[O-])cc3)c2=O)c1 [Compound 5] | > 50 µM | 46.1 ± 1 µM | Active |  |  | 
COc1cccc(Cc2cc(C(C)C)nn(CC(=O)Nc3ccc(Br)cc3)c2=O)c1 [Compound 10] | > 50 µM | 22 ± 1.7 µM | Active |  |  | IC50 [3]: 8.7 ± 1.6 µM; IC50 at 24 h [4]: > 50 µM
COc1cccc(Cc2cc(C)nn(CC(=O)Nc3ccc(F)cc3)c2=O)c1 [Compound 15] | > 50 µM | 33.6 ± 2.1 µM | Active |  |  | 
COc1ccc(-c2cc(C)nn(CC(=O)Nc3ccc(Br)cc3)c2=O)cc1 [Compound 19] |  |  |  |  |  | Inhibition of LPS-induced NF-κB activity (in words) ([1]; 250 ng/mL LPS, 24 h): inactive
Cc1cc(Cc2cccc(Cl)c2)c(=O)n(CC(=O)Nc2ccc(I)cc2)n1 [Compound 23] | > 50 µM | 7.1 ± 2 µM | Active |  |  | IC50 [3]: 13.1 ± 0.3 µM; IC50 at 24 h [4]: > 50 µM
Cc1cc(Cc2ccccc2)c(=O)n(CC(=O)Nc2ccc(Br)cc2)n1 [Compound 30] | > 50 µM | 28.4 ± 5.7 µM | Active |  |  | 
COc1ccc(Cc2cc(-c3ccc(F)cc3)nn(CC(=O)Nc3ccc(Br)cc3)c2=O)cc1 [Compound 49] | > 50 µM | 34.5 ± 2.1 µM | Active | > 50 µM | > 50 µM | 
COc1ccc(N(c2ccc(OC)cc2)c2cc(C)nn(CC(=O)Nc3ccc(Br)cc3)c2=O)cc1 [Compound 50] | > 50 µM | 32.8 ± 0.7 µM | Active | > 50 µM | > 50 µM | 
Cc1cc(Cc2cccc(F)c2)c(=O)n(CC(=O)Nc2ccc(Br)cc2)n1 [Compound 64] | > 50 µM | 27.9 ± 2.1 µM | Active |  |  | 
Cc1cc(Cc2ccc(C(F)(F)F)cc2)c(=O)n(CC(=O)Nc2ccc(Br)cc2)n1 [Compound 66] | 26.4 ± 4.7 µM | 31.5 ± 2.2 µM | Active | > 50 µM | > 50 µM | IC50 at 24 h ([2]; 24 h, read-out: Cytotoxicity IC50): 22 to 26 µM
Cc1cc(-c2ccccc2)nn(CC(=O)Nc2ccc(Br)cc2)c1=O [Compound 67] | > 50 µM | 30.9 ± 2.3 µM |  | 21.5 µM | 10.1 µM | Inhibition of LPS-induced NF-κB activity (in words) ([1]; 250 ng/mL LPS, 24 h): active
CCC(C(=O)Nc1ccc(Br)cc1)n1nc(C)cc(Cc2cccc(OC)c2)c1=O (stereo not shown) [Compound 88] | > 50 µM | 39.4 ± 4.2 µM |  | 1.3 µM | 2.2 µM | 
CCC(C)(C(=O)Nc1ccc(Br)cc1)n1nc(C)cc(Cc2cccc(OC)c2)c1=O (stereo not shown) [Compound 90] | > 50 µM | 39.2 ± 6.7 µM |  | 1.5 µM | 2.1 µM | 
CCCCOc1ccc(-c2c(OC)cnn(Cc3ccc(OC)cc3)c2=O)cc1 [Compound 109] | > 50 µM | 31.3 ± 1.6 µM | Active | > 50 µM | > 50 µM | 
COc1cccc(Cc2cc(C)nn(CCNC(=O)Nc3ccc(Br)cc3)c2=O)c1 [Compound 113] | > 50 µM | 37 ± 0.4 µM | Active |  |  | 
CC1CC(c2ccccc2)=NN(CC(=O)Nc2ccc(F)cc2)C1=O (stereo not shown) [Compound 122] | > 50 µM | 46.3 ± 2.4 µM |  | > 50 µM | > 50 µM | 
CC1CC(c2ccccc2)=NN(CC(=O)Nc2ccc(Br)cc2)C1=O (stereo not shown) [Compound 124] | > 50 µM | 42.7 ± 0.3 µM |  | 19.5 µM | 10.7 µM | 
COc1ccc2c(c1)c(CC(=O)Nc1ccc(Br)cc1)c(C)n2C(=O)c1ccc(Cl)cc1 [Compound 133] |  |  |  |  |  | Inhibition of LPS-induced NF-κB activity (in words) ([1]; 250 ng/mL LPS, 24 h): inactive
COc1cccc(Cn2cc(CC(=O)Nc3ccc(Br)cc3)c3ccccc32)c1 [Compound 134] |  |  |  |  |  | Inhibition of LPS-induced NF-κB activity (in words) ([1]; 250 ng/mL LPS, 24 h): inactive
COc1cccc(-c2cc(C#N)c(=O)n(CC(=O)Nc3ccc(Br)cc3)c2C)c1 [Compound 141] | > 50 µM | 15.3 ± 4.9 µM | Active |  |  | IC50 [3]: 24.5 ± 0.8 µM; IC50 at 24 h [4]: > 50 µM
Cc1ccc(-n2ccc(=O)n(CC(=O)Nc3ccc(Br)cc3)c2=O)cc1 [Compound 149] | > 50 µM | 43 ± 3.9 µM | Active | 13.6 µM | 14.9 µM | 
COc1ccc(Nc2c(C#N)cnn2CC(=O)Nc2ccc(Br)cc2)cc1 [Compound 156] | > 50 µM | 25 ± 0.4 µM | Active | > 50 µM | > 50 µM | 
COc1cccc(-c2nn(CC(=O)Nc3ccc(Br)cc3)c(C)c2C#N)c1 [Compound 160] | > 50 µM |  | Active | 8.2 µM | 4.8 µM | IC50 [1]: 28.8 ± 2 µM
COc1cccc(Nc2cn(-c3ccccc3)n(CC(=O)Nc3ccc(Br)cc3)c2=O)c1 [Compound 164] | > 50 µM | 35.7 ± 1.9 µM | Active | 29 µM | > 50 µM | 
O=C(Cn1c(-c2ccc(Cl)cc2)csc1=O)Nc1ccc(Br)cc1 [Compound 168] | > 50 µM | 43.4 ± 4.2 µM | Active | 2.8 µM | 2.4 µM | 
N-formyl-Met-Leu-Phe [fMLF, reference compound] |  |  |  |  |  | Inhibition of LPS-induced NF-κB activity (in words) ([1]; peptide at 5 nM): did not inhibit; Inhibition of LPS-induced IL-6 production (in words) [3]: did not affect
